These results are taken from ChEMBL document CHEMBL1146384, “Synthesis and in vitro binding studies of substituted piperidine naphthamides. Part II: Influence of the substitution on the benzyl moiety on the affinity for D2L, D4.2, and 5-HT2A receptors” (Bioorg Med Chem Lett, 2007).

The target in test [1] is T1, D(4) dopamine receptor (Homo sapiens) (UniProt P21917).
T1 sequence (whole entry): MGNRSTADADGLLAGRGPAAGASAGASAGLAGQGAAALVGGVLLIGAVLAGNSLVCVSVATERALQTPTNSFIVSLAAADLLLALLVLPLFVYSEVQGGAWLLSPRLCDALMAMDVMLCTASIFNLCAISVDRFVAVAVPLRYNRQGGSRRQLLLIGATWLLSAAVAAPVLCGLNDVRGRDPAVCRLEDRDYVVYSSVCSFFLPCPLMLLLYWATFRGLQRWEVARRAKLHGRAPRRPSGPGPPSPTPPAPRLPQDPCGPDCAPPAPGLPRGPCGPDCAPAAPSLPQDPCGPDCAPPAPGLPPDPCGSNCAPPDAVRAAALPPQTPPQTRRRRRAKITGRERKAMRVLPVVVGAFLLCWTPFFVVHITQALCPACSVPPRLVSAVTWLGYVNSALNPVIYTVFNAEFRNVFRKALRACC
Kind of test: Antagonist activity at dopamine D4.2 receptor assessed as inhibition of dopamine-induced effect at 5 uM. It is filed as functional.

Test [2] concerns the target 5-hydroxytryptamine receptor 2A (Homo sapiens) (UniProt P28223). Kind of test: Antagonist activity at 5HT2A assessed as inhibition of serotonin-induced effect at 5 uM. It counts as functional.
A further test addresses T2, D(4) dopamine receptor (Homo sapiens, UniProt P21917).
T2 sequence (P21917 whole entry): T1 sequence (whole entry)
Kind of test: Displacement of [3H]nemonapride from human cloned dopamine D4.2 receptor. A general note: In a radioligand displacement assay an active substance lowers the binding of a labelled ligand.

The target of test [3] is 5-hydroxytryptamine receptor 2A (Rattus norvegicus, UniProt P14842). Kind of test: Displacement of [3H]ketanserin from rat 5HT2A receptor.
Test [4] addresses D(2) dopamine receptor (Homo sapiens) (UniProt P14416). Kind of test: Displacement of [3H]spiperone from human cloned dopamine D2L receptor at 1 uM.
The target in test [5] is 5-hydroxytryptamine receptor 2A (Rattus norvegicus) (UniProt P14842). Kind of test: Displacement of [3H]ketanserin from rat 5HT2A receptor at 1 uM.
Test [6] concerns the target T1, D(4) dopamine receptor (Homo sapiens). Kind of test: Displacement of [3H]nemonapride from human cloned dopamine D4.2 receptor at 1 uM.

Calls of active or inactive are those of the source. The rule behind the calls is not given here.

Sequence of D(2) dopamine receptor (Homo sapiens) (P14416 whole entry): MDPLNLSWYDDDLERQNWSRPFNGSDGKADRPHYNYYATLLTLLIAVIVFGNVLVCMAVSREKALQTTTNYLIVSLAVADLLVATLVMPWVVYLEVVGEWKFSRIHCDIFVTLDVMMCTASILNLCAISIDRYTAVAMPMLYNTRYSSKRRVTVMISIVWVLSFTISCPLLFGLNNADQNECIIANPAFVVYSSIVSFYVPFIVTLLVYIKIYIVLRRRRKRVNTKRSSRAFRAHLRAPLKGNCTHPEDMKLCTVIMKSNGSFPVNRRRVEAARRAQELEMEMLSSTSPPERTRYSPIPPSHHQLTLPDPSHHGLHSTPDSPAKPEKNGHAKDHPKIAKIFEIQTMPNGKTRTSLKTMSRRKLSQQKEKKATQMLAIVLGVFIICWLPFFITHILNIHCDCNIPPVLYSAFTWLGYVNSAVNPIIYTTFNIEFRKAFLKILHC
Sequence of 5-hydroxytryptamine receptor 2A (P14842 whole entry): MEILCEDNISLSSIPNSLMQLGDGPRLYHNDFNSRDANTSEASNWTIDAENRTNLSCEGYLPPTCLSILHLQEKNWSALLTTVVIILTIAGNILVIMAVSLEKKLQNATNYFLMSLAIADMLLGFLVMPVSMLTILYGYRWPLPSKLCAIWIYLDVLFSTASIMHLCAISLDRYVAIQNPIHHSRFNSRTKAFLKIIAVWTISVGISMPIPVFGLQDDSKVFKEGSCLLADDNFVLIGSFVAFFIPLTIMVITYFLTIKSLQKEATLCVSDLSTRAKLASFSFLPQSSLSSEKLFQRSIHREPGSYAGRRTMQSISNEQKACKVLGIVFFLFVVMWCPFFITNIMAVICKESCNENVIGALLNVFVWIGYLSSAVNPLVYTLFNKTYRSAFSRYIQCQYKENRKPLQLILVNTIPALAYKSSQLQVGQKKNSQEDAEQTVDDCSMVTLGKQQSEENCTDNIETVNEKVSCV
Sequence of 5-hydroxytryptamine receptor 2A (Rattus norvegicus) (P14842 whole entry): as above
Sequence of 5-hydroxytryptamine receptor 2A (Homo sapiens) (P28223 whole entry): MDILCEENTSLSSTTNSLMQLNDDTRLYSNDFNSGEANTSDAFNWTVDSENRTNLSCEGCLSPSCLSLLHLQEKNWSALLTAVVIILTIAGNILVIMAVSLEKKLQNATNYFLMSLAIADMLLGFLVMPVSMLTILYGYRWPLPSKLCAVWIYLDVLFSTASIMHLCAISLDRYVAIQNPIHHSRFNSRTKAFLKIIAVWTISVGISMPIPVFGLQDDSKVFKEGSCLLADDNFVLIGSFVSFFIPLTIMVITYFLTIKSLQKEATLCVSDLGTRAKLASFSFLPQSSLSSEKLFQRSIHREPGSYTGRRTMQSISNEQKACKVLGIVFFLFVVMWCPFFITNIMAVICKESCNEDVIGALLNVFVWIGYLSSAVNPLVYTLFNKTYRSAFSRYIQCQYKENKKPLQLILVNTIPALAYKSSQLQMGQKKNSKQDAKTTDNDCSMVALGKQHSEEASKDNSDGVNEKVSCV

Take `O=C(NC1CCN(Cc2ccccc2)CC1)c1ccc2ccccc2c1`: the result in test [1] and in test [2] was Active.
For orientation: Ki means the equilibrium dissociation constant of an inhibitor or competing ligand from its target. A word on the inhibition: it is the percentage by which the read-out fell short of the control. A lower inhibition goes with little suppression. As for `O=C(NC1CCN(Cc2ccc([N+](=O)[O-])cc2)CC1)c1ccc2ccccc2c1`, the Ki on D(4) dopamine receptor is 0.181 µM; in test [3], 0.278 µM. The result in test [1] and in test [2] was Active. For the same molecule, the inhibition in test [4] amounted to 0%.
As for `COc1cccc(CN2CCC(NC(=O)c3ccc4ccccc4c3)CC2)c1`, the Ki at D(4) dopamine receptor amounted to 0.016 µM; in test [3], 0.158 µM. Further, the outcome in test [1] and in test [2] was Active. Also, the inhibition in test [4] amounted to 0%.
As to `O=C(NC1CCN(Cc2ccccc2Br)CC1)c1ccc2ccccc2c1`, the inhibition worked out at 47% in test [5], 0% in test [4] and 31% in test [6].
Regarding `O=C(NC1CCN(Cc2ccccc2)CC1)c1cccc2ccccc12`, the result in test [1] and in test [2] was Active.
As for `O=C(NC1CCN(Cc2ccc(Cl)cc2)CC1)c1cccc2ccccc12`, affinity on D(4) dopamine receptor was put at a Ki of 0.043 µM. Besides, the inhibition was found to be 23% in test [5] and 0% in test [4]. Besides, in test [1], the outcome was Active.
With `COc1ccc(CN2CCC(NC(=O)c3cccc4ccccc34)CC2)cc1`, the Ki at D(4) dopamine receptor is 0.223 µM. Further, the outcome in test [1] was Active. The molecule further came in with an inhibition in test [4] of 3%.
`Cc1cccc(CN2CCC(NC(=O)c3cccc4ccccc34)CC2)c1`: the Ki at D(4) dopamine receptor was determined as 0.077 µM. For the same molecule, the inhibition in test [5] is 38%; in test [4], 11%. In test [1], the result was Active.
For `O=C(NC1CCN(Cc2cccc(C(F)(F)F)c2)CC1)c1ccc2ccccc2c1`, on D(4) dopamine receptor, the Ki was determined as 0.103 µM. Also, the inhibition was found to be 15% in test [5] and 9% in test [4]. Moreover, the outcome in test [1] was Active.
For the molecule `O=C(NC1CCN(Cc2cccc(Br)c2)CC1)c1cccc2ccccc12`, the Ki at D(4) dopamine receptor worked out at 0.066 µM; in test [3] it was 0.462 µM. In addition, the result in test [1] and in test [2] was Active.
On D(4) dopamine receptor, `Cc1ccccc1CN1CCC(NC(=O)c2cccc3ccccc23)CC1` yielded a Ki of 0.155 µM. Besides, the inhibition came out at 26% in test [5] and 9% in test [4]. The outcome in test [1] was Active.
`Cc1ccccc1CN1CCC(NC(=O)c2ccc3ccccc3c2)CC1`: the Ki was 0.026 µM at D(4) dopamine receptor and 0.175 µM in test [3]. The outcome in test [1] and in test [2] was Active. Further, the inhibition in test [4] came out at 6%.
With `O=C(NC1CCN(Cc2ccc(Br)cc2)CC1)c1ccc2ccccc2c1`, the Ki amounted to 0.034 µM on D(4) dopamine receptor and 0.223 µM in test [3]. The outcome in test [1] and in test [2] was Active.
With `Cc1ccc(CN2CCC(NC(=O)c3ccc4ccccc4c3)CC2)cc1`, the Ki was 0.021 µM on D(4) dopamine receptor and 0.222 µM in test [3]. Also, the result in test [1] and in test [2] was Active. Also, the inhibition in test [4] was 42%.
`O=C(NC1CCN(Cc2ccc(C(F)(F)F)cc2)CC1)c1cccc2ccccc12` showed a Ki at D(4) dopamine receptor of 0.096 µM. The figures for the inhibition in test [5] and in test [4] were 32% and 0%, respectively. Further, the outcome in test [1] was Active.
As to `Cc1cccc(CN2CCC(NC(=O)c3ccc4ccccc4c3)CC2)c1`, the Ki was 0.011 µM on D(4) dopamine receptor and 0.087 µM in test [3]. Moreover, the outcome in test [1] and in test [2] was Active. Further, the inhibition in test [4] came out at 20%.
In the case of `O=C(NC1CCN(Cc2cccc(Cl)c2)CC1)c1cccc2ccccc12`, the Ki at D(4) dopamine receptor worked out at 0.116 µM. Further, the inhibition was found to be 49% in test [5] and 0% in test [4]. Moreover, the result in test [1] was Active.
Take `O=C(NC1CCN(Cc2ccncc2)CC1)c1ccc2ccccc2c1`: the inhibition constant Ki in test [3] came out at 0.695 µM. Moreover, the inhibition turned out to be 5% in test [4] and 32% in test [6].
At D(4) dopamine receptor, `Cc1ccc(CN2CCC(NC(=O)c3cccc4ccccc34)CC2)cc1` showed a Ki of 0.069 µM. Also, the inhibition in test [5] is 33%; in test [4], 13%. Besides, the result in test [1] was Active.
The molecule `O=C(NC1CCN(Cc2cccc(C(F)(F)F)c2)CC1)c1cccc2ccccc12` showed a Ki at D(4) dopamine receptor of 0.119 µM. In addition, the result in test [1] was Active. This molecule also showed an inhibition in test [4] of 0%.
Molecule `O=C(NC1CCN(Cc2ccc(Br)cc2)CC1)c1cccc2ccccc12` came in with a Ki on D(4) dopamine receptor of 0.044 µM. In addition, in test [1], the outcome was Active. The inhibition in test [4] was determined as 4%.
Take `COc1cccc(CN2CCC(NC(=O)c3cccc4ccccc34)CC2)c1`: the affinity on D(4) dopamine receptor, expressed as Ki, was 0.168 µM. The inhibition in test [5] is 23%; in test [4], 0%. The outcome in test [1] was Active.
Turning to `O=C(NC1CCN(Cc2ccc(C(F)(F)F)cc2)CC1)c1ccc2ccccc2c1`, at D(4) dopamine receptor, the Ki is 0.084 µM. Moreover, the results for the inhibition in test [5] and in test [4] were 36% and 0%, respectively.
On D(4) dopamine receptor, `O=C(NC1CCN(Cc2ccccc2Cl)CC1)c1cccc2ccccc12` returned a Ki of 0.329 µM. The result in test [1] was Active.
In the case of `O=C(NC1CCN(Cc2ccc([N+](=O)[O-])cc2)CC1)c1cccc2ccccc12`, the inhibition stood at 20% in test [5], 0% in test [4] and 42% in test [6].
Turning to `O=C(NC1CCN(Cc2cccc(Cl)c2)CC1)c1ccc2ccccc2c1`, the inhibition constant (Ki) amounted to 0.054 µM at D(4) dopamine receptor and 0.133 µM in test [3]. The outcome in test [1] and in test [2] was Active. The molecule also yielded an inhibition in test [4] of 29%.
For `O=C(NC1CCN(Cc2ccccc2Cl)CC1)c1ccc2ccccc2c1`, the Ki in test [3] came out at 0.133 µM. Also, the values for the inhibition in test [4] and in test [6] were 0% and 48%, respectively. In addition, the outcome in test [2] was Active.
In the case of `O=C(NC1CCN(Cc2ccccn2)CC1)c1ccc2ccccc2c1`, the Ki on D(4) dopamine receptor is 0.299 µM; in test [3], 0.545 µM. In test [4], the inhibition worked out at 5%.
In test [3], `O=C(NC1CCN(Cc2c(F)c(F)c(F)c(F)c2F)CC1)c1cccc2ccccc12` showed a Ki of 0.228 µM. The inhibition in test [4] and in test [6] was 0% throughout.
For `COc1ccc(CN2CCC(NC(=O)c3ccc4ccccc4c3)CC2)cc1`, the Ki at D(4) dopamine receptor amounted to 0.031 µM; in test [3] it was 0.151 µM. For the same molecule, the outcome in test [1] and in test [2] was Active. This molecule also yielded an inhibition in test [4] of 18%.
Take `O=C(NC1CCN(Cc2c(F)c(F)c(F)c(F)c2F)CC1)c1ccc2ccccc2c1`: the results for the inhibition in test [5], in test [4] and in test [6] were 4%, 0% and 0%, respectively.
For `O=C(NC1CCN(Cc2cccc(Br)c2)CC1)c1ccc2ccccc2c1`, the Ki on D(4) dopamine receptor came to 0.036 µM; in test [3] it was 0.053 µM. The outcome in test [1] and in test [2] was Active.
Turning to `O=C(NC1CCN(Cc2ccc(Cl)cc2)CC1)c1ccc2ccccc2c1`, the Ki at D(4) dopamine receptor is 0.037 µM; in test [3], 0.242 µM. Further, the result in test [1] and in test [2] was Active. Further, the inhibition in test [4] is 15%.
With `O=C(NC1CCN(Cc2ccccc2Br)CC1)c1cccc2ccccc12`, the inhibition was found to be 8% in test [4] and 35% in test [6].
Turning to `O=C(NC1CCN(Cc2cccnc2)CC1)c1ccc2ccccc2c1`, the Ki is 0.326 µM on D(4) dopamine receptor and 0.524 µM in test [3]. The same molecule yielded an inhibition in test [4] of 4%.
